Several values for one entry are separate records, joined by “and”; a condition that tells them apart may be missing. Identical values can stand only once.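 The compound was tested at five concentrations on cells cultured in 96-well plates, with a 48-hour exposure period. GI50 is the concentration that inhibits growth by half. Definition used: TGI = concentration required for complete inhibition of growth.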
Legend:
Experiment in all cases: NCI-60 cell line screen, 48 h
[1] = tested on: M14 melanoma
[2] = tested on: OVCAR-5 ovarian
[3] = tested on: TK-10 renal
[4] = tested on: MALME-3M melanoma
[5] = tested on: UO-31 renal
[6] = tested on: OVCAR-4 ovarian
[7] = tested on: HCT-116 colon
[8] = tested on: SN12C renal
[9] = tested on: A498 renal

SMILES	TGI [1]	TGI [2]	TGI [3]	TGI [4]	TGI [5]	TGI [6]	TGI [7]	TGI [8]	TGI [9]	GI50 [1]	GI50 [2]	GI50 [3]	GI50 [5]	GI50 [6]	GI50 [8]	GI50 [4]	GI50 [9]	GI50 [7]
CC(=O)c1sc(-c2nc(C)c(C(=O)/C=C\c3ccc(/C=C\C(=O)c4sc(-c5nc(C)c(C(C)=O)s5)nc4C)cc3)s2)nc1C	> 100 µM	> 100 µM	> 100 µM	> 100 µM	> 100 µM	> 100 µM	> 100 µM	> 100 µM	–	–	–	–	–	–	–	–	–	–
C[n+]1cc(C(O)c2ccc3c(c2)OCO3)c2ccccc2c1 (centres undefined)	91.7 µM	> 100 µM	> 100 µM	65 µM	92.5 µM	–	> 100 µM	> 100 µM	> 100 µM	–	–	–	–	–	–	–	–	–
CC(C)(C=O)CC(C#N)/C(=N\NC(N)=O)C(=O)Nc1ccccc1C(N)=O (centres undefined)	> 100 µM	> 100 µM	> 100 µM	> 100 µM	> 100 µM	> 100 µM	> 100 µM	> 100 µM	> 100 µM	–	–	–	–	–	–	–	–	–
Cc1cc(C)c(C2[C@H]3C(=O)N(c4ccc(Cc5ccc(N6C(=O)[C@@H]7ON(c8ccccc8)C(c8c(C)cc(C)cc8C)[C@@H]7C6=O)cc5)cc4)C(=O)[C@H]3ON2c2ccccc2)c(C)c1 (some centres undefined)	> 100 µM	> 100 µM	> 100 µM	> 100 µM	> 100 µM	> 100 µM	> 100 µM	> 100 µM	> 100 µM	–	–	–	–	–	–	–	–	–
C[C@@]12CCCc3coc(c31)C(=O)c1cc3c(cc12)C(=O)C=CC3=O	> 1 µM and 29.7 µM	> 1 µM and 36.4 µM	> 1 µM and 35.8 µM	> 1 µM	> 1 µM and 29.7 µM	> 1 µM and 28.9 µM	> 1 µM	> 1 µM and 38.6 µM	> 100 µM	> 1 µM	> 1 µM	> 1 µM	> 1 µM	> 1 µM	> 1 µM	–	–	–
O=C1c2ccc3c4ccccc4n(Cc4ccccc4)c3c2C(=O)N1c1ccccc1	27.9 µM	33 µM	29 µM	29.9 µM	30.1 µM	23.1 µM	30 µM	30.1 µM	45.9 µM	–	–	–	–	–	–	–	–	–
O=C1[C@H]2ON(c3ccccc3)C(c3ccc(Cl)cc3)[C@H]2C(=O)N1c1ccc(Cc2ccc(N3C(=O)[C@@H]4ON(c5ccccc5)C(c5ccc(Cl)cc5)[C@@H]4C3=O)cc2)cc1 (some centres undefined)	66.8 µM	> 100 µM	> 100 µM	> 100 µM	> 100 µM	> 100 µM	> 100 µM	> 100 µM	> 100 µM	–	–	–	–	–	–	–	–	–
COc1ccc2[nH]c3c4c(ccc3c2c1)C(=O)C=CC4=O	35.2 µM	41.5 µM	28.1 µM	17.4 µM	28.2 µM	28.6 µM	13.9 µM	24.4 µM	48.4 µM	–	–	–	–	–	–	–	–	–
COC(=O)CCC(=O)CC1CC(=O)C2CCCN12 (centres undefined)	> 100 µM	> 100 µM	> 100 µM	> 100 µM	> 100 µM	> 100 µM	> 100 µM	> 100 µM	> 100 µM	–	–	–	–	–	–	–	–	–
COc1ccc(C2c3cc(OC)c(OC)cc3C(Cc3ccc([N+](=O)[O-])cc3)C2c2ccc([N+](=O)[O-])cc2)cc1OC (centres undefined)	> 100 µM	> 100 µM	> 100 µM	> 100 µM	> 100 µM	> 100 µM	> 100 µM	> 100 µM	> 100 µM	–	–	–	–	–	–	–	–	–
C1C[OH+]CCNCC[OH+]CC[OH+]CCN1.[Cl-].[Pt+4]	> 100 µM	–	> 100 µM	> 100 µM	> 100 µM	> 100 µM	> 100 µM	> 100 µM	> 100 µM	> 100 µM	–	> 100 µM	> 100 µM	> 100 µM	> 100 µM	> 100 µM	> 100 µM	> 100 µM
COc1cc(C)c2c(c1C)OC(=O)c1c(C)c(Cl)c(O)c(C=O)c1O2	52 µM	81.8 µM	> 100 µM	42.3 µM	76 µM	–	54.9 µM	> 100 µM	33.2 µM	–	–	–	–	–	–	–	–	–
O=c1[nH]c2cc(Cl)ccc2nc1/C(=N\O)C(O)c1ccc(Cl)cc1Cl (centres undefined)	> 100 µM	> 100 µM	–	> 100 µM	> 100 µM	> 100 µM	> 100 µM	> 100 µM	–	–	–	–	–	–	–	–	–	–
Cc1cc(NS(=O)(=O)c2ccc(Nc3c4ccccc4nc4c(C(=O)NCCN(C)C)cccc34)cc2)no1	> 100 µM	> 100 µM	> 100 µM	–	–	57.7 µM	> 100 µM	> 100 µM	–	–	–	–	–	–	–	–	–	–
CCOC(=N)CC(=O)Nc1cccc(C)c1C	> 100 µM	> 100 µM	> 100 µM	> 100 µM	> 100 µM	> 100 µM	> 100 µM	> 100 µM	> 100 µM	–	–	–	–	–	–	–	–	–
CCCCOC(=O)NC(=O)c1cn(CCCOC(=O)NCCCCCCNC(=O)OCCCn2cc(C(=O)NC(=O)OCCCC)c(=O)[nH]c2=O)c(=O)[nH]c1=O	> 100 µM	> 100 µM	> 100 µM	> 100 µM	> 100 µM	> 100 µM	> 100 µM	> 100 µM	> 100 µM	–	–	–	–	–	–	–	–	–

From PubChem BioAssay (NCI)
